According to the Kinase Knowledgebase extract (Sharma et al. 2016):

Tests used:
PIK3CA (human) = PIK3CA (human) (UniProt P42336); test: Inhibition of PIK3CA Kinase Activity
PIK3CG = PIK3CG (UniProt P48736); test: Inhibition of PIK3CG Kinase Activity
PIK3CD (Human) = PIK3CD (Human) (UniProt O00329); test: Inhibition of PIK3CD Kinase Activity
EGFR = EGFR (UniProt P00533)
CDK2 = CDK2 (UniProt P24941)
MAPK14 = MAPK14 (UniProt Q16539)
PIK3CB (Human) [1] = target: PIK3CB (Human) (UniProt P42338); test: Assessment of Neutrophil ROS Response in Human Whole Blood; settings: neutrophils
Chain of PIK3CB (Human) (P42338 whole entry, looked up): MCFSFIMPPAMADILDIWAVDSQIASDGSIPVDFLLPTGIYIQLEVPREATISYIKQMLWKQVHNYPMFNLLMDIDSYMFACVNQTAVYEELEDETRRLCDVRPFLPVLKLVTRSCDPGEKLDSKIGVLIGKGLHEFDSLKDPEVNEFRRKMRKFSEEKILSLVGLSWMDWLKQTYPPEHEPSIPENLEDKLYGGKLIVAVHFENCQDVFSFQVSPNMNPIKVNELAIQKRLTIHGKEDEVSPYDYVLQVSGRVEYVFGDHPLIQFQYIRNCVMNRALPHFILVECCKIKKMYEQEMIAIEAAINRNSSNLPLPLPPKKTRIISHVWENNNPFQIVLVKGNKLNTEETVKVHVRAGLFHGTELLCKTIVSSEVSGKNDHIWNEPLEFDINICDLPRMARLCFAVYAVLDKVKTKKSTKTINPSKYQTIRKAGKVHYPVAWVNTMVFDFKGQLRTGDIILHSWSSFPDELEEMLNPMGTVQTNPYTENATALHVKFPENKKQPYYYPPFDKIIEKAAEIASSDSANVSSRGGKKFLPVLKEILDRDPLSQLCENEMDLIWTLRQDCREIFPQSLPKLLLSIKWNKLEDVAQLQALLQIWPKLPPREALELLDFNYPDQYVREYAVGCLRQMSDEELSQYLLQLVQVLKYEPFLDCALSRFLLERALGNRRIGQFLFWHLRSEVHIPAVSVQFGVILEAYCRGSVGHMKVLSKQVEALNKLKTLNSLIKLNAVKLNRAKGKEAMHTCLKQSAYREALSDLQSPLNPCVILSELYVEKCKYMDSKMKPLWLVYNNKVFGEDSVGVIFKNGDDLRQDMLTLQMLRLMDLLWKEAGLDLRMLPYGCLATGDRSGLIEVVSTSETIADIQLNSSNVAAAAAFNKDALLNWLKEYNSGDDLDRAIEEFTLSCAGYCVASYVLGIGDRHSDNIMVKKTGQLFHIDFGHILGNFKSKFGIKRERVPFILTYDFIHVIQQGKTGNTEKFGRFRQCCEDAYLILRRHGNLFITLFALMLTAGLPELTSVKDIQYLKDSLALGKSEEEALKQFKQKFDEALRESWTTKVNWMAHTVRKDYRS

PIK3CB (Human) [2] = target: PIK3CB (Human) (UniProt P42338); test: Inhibition of CD9 Antibody Induced Platelet Aggregation
PIK3CB (Human) [3] = target: PIK3CB (Human) (UniProt P42338); test: Inhibition of Platelet Thrombus Formation under Flow
PIK3CB (Human) [4] = target: PIK3CB (Human) (UniProt P42338); test: Inhibition of U937 Cell Proliferation

Chain of PIK3CD (Human) (O00329 whole entry, looked up): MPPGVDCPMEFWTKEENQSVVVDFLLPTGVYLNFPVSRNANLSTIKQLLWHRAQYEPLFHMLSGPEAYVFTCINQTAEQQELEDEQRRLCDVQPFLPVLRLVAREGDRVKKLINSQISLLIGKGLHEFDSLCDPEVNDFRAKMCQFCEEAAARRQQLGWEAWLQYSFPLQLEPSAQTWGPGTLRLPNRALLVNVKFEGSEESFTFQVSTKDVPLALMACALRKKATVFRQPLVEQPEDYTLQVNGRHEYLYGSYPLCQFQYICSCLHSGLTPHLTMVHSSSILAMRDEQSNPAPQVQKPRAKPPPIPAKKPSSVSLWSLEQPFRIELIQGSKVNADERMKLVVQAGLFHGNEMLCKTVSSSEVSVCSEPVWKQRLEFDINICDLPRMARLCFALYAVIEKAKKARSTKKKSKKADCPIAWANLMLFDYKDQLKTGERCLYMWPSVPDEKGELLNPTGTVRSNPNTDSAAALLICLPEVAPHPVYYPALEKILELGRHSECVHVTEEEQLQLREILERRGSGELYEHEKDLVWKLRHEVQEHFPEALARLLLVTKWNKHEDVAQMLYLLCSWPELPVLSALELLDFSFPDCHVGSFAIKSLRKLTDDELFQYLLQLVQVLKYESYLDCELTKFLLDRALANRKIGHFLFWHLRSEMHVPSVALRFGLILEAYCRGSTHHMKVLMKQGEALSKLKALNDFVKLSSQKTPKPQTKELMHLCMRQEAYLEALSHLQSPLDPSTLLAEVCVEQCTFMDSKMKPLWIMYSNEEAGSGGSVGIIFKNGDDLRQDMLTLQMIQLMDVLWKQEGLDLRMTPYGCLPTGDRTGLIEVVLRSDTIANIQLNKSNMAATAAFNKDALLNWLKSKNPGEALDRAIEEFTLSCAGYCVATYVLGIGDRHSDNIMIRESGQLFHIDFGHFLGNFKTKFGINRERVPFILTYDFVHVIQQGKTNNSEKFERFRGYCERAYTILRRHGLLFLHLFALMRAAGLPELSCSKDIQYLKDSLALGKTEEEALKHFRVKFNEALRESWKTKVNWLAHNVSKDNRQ
Chain of PIK3CG (P48736 whole entry, looked up): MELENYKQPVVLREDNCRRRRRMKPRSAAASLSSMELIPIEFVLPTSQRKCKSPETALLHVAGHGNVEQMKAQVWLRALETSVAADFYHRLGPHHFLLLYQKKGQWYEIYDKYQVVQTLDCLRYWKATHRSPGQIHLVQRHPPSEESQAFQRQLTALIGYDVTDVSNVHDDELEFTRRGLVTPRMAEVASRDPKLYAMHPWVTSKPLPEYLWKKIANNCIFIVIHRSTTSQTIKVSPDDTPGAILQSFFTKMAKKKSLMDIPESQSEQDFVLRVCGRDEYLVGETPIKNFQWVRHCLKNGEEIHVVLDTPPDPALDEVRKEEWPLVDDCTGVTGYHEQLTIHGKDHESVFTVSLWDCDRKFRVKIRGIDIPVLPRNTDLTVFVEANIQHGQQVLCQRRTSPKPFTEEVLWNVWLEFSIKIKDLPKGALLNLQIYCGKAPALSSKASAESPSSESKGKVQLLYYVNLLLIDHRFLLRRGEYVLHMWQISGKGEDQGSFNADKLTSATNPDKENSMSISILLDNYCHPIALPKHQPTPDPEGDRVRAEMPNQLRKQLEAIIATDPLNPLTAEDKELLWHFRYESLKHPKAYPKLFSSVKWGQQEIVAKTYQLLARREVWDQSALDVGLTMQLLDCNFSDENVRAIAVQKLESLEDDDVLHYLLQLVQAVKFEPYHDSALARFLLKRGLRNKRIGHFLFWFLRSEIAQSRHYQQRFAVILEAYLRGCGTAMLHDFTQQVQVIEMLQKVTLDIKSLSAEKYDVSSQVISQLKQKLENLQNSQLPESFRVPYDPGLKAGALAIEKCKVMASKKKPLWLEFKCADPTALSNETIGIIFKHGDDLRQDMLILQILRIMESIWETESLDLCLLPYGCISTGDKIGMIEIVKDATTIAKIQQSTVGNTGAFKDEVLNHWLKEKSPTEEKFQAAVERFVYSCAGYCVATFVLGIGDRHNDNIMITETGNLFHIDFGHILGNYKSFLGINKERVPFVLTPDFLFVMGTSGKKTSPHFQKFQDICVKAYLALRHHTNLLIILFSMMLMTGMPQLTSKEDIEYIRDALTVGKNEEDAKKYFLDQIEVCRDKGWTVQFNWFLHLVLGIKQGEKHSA
Chain of PIK3CA (human) (P42336 whole entry, looked up): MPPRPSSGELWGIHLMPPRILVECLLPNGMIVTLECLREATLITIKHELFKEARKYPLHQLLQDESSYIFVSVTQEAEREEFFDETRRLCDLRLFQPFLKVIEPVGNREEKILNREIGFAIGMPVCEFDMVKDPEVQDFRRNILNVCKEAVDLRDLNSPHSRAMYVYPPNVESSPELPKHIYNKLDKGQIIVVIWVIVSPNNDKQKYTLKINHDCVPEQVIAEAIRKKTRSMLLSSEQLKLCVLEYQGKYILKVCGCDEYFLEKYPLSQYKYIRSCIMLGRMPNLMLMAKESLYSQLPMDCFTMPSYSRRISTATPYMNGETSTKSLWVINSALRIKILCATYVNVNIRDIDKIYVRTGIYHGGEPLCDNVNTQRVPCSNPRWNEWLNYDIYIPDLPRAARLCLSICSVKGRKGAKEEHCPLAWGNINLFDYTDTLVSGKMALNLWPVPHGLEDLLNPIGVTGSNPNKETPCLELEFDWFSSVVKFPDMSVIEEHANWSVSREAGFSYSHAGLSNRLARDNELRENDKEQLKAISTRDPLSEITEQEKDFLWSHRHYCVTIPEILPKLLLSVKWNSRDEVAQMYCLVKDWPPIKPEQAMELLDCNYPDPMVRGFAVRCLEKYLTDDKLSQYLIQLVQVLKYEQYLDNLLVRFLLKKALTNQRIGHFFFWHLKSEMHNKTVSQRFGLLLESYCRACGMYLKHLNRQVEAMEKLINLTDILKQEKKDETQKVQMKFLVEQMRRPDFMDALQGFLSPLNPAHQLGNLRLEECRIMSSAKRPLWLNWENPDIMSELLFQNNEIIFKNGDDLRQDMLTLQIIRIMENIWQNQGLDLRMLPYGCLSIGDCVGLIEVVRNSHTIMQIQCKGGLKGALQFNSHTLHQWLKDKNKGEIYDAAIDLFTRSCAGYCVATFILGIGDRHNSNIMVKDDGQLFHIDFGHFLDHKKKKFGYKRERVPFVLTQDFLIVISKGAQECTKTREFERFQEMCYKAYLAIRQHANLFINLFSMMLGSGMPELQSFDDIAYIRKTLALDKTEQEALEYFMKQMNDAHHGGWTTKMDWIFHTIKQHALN
Chain of MAPK14 (Q16539 whole entry, looked up): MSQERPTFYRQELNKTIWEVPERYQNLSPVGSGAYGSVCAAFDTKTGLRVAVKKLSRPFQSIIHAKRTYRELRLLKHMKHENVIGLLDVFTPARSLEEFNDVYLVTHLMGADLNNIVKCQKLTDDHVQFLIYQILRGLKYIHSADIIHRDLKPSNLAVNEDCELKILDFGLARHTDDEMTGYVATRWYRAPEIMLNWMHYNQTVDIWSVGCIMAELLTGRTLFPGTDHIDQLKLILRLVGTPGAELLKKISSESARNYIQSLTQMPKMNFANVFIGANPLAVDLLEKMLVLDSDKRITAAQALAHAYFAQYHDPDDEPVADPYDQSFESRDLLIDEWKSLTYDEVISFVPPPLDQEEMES

Compound | IC50 (PIK3CA (human)) | IC50 (PIK3CG) | IC50 (PIK3CD (Human)) | also measured
Cc1cc(C(C)Nc2ccccn2)c2nc(N3CCOCC3)cc(=O)n2c1 (stereo not drawn) | > 5 µM | – | – | –
Cc1cc(C(C)Nc2cc(F)cc(F)c2)c2nc(N3CCOCC3)cc(=O)n2c1 (stereo not drawn) | > 5 µM | – | – | –
Cc1cc(CNc2ccccc2)c2oc(-c3ccncc3)cc(=O)c2c1 | – | 10 µM | 10 µM | –
Cc1cc(C(C)Nc2cccc(C(F)(F)F)c2)c2oc(-c3ccncc3)cc(=O)c2c1 (stereo not drawn) | – | 10 µM | – | –
Cc1cc(C(C)Nc2cccc(Cl)c2)c2nc(N3CCOCC3)cc(=O)n2c1 (stereo not drawn) | > 5 µM | – | – | –
CC(=O)Nc1ccccc1NCc1cc(C)cc2c(=O)cc(-c3ccncc3)oc12 | – | 5 µM | 1 µM | –
O=c1cc(-c2ccncc2)oc2c(NCc3ccccc3)cccc12 | – | – | 0.2 µM | –
Cc1cc(C(C)Nc2ccc(Cl)c(Cl)c2)c2nc(N3CCOCC3)cc(=O)n2c1 (stereo not drawn) | > 5 µM | – | – | –
Cc1cc(C(C)Nc2cccc(C(F)(F)F)c2)c2nc(N3CCOCC3)cc(=O)n2c1 (stereo not drawn) | > 5 µM | – | – | –
O=c1cc(-c2ccncc2)oc2c(OCc3ccccc3)cccc12 | – | 10 µM | – | –
Cc1cccc(NC(C)c2cc(C)cn3c(=O)cc(N4CCOCC4)nc23)c1 (stereo not drawn) | > 5 µM | – | – | –
Cc1cc(CN(C)c2ccccc2)c2nc(N3CCOCC3)cc(=O)n2c1 | > 5 µM | – | – | –
Cc1cc(C(C)Oc2ccccc2)c2oc(-c3ccncc3)cc(=O)c2c1 (stereo not drawn) | – | 20 µM | – | –
Cc1cc(C(C)Nc2ccccc2)c2nc(N3CCOCC3)cc(=O)n2c1 (stereo not drawn) | > 5 µM | – | – | IC50 (EGFR): > 10 µM; IC50 (CDK2): > 10 µM; IC50 (MAPK14): > 10 µM
Cc1cc(C(C)n2c(C(F)(F)F)nc3ccccc32)c2oc(-c3ccncc3)cc(=O)c2c1 (stereo not drawn) | – | 10 µM | 10 µM | –
Cc1cc(C(C)Nc2ccc(Cl)cc2)c2nc(N3CCOCC3)cc(=O)n2c1 (stereo not drawn) | > 5 µM | – | – | –
O=c1cc(-c2ccncc2)[nH]c2c(-c3ccccc3)cccc12 | – | – | 10 µM | –
Cc1cc(N[C@H](C)c2ccccc2)c2nc(-c3ccncc3)cc(=O)n2c1 | – | 20 µM | 1 µM | –
Cc1cc(COc2ccccc2)c2oc(-c3ccncc3)cc(=O)c2c1 | – | 10 µM | – | –
Cc1cc(-c2ccccc2)c2nc(-c3ccncc3)cc(=O)n2c1 | – | > 10 µM | > 10 µM | –
CC(Nc1ccccc1N)c1cccc2c(=O)cc(-c3ccncc3)oc12 (stereo not drawn) | – | 15 µM | 0.5 µM | IC50 (PIK3CB (Human) [1]): 0.078 µM; IC50 (PIK3CB (Human) [2]): 0.2 µM; IC50 (PIK3CB (Human) [3]): 0.25 µM; IC50 (PIK3CB (Human) [4]): 20 µM
Cc1cc(C(C)Nc2ccccc2)c2oc(-c3ccncc3)cc(=O)c2c1 (stereo not drawn) | – | – | – | IC50 (PIK3CB (Human) [1]): 0.005 µM; IC50 (PIK3CB (Human) [2]): 0.1 µM; IC50 (PIK3CB (Human) [3]): 0.5 µM; IC50 (PIK3CB (Human) [4]): 5 µM
